Laboratory results taken from patent US7858635B2 (priority 2005, dated 2010).
Where two headings read alike, the source gives them in different places.

Legend:
M1 muscarinic receptor = target: T1, M1 muscarinic receptor (Homo sapiens, UniProt P11229); assay: Functional mobilization of intracellular calcium (FLIPR, Fluo-3), M1-CHO cells; assay type: cell-based; conditions: for Emax: 100% efficacy is the maximum response obtained with the Carbachol control, read-out: M1 Efficacy
T1 construct: expressed in transfected cells; host or cells: CHO cells (M1-CHO, under zeocin and G418 selection)
T1 sequence (P11229 1-460): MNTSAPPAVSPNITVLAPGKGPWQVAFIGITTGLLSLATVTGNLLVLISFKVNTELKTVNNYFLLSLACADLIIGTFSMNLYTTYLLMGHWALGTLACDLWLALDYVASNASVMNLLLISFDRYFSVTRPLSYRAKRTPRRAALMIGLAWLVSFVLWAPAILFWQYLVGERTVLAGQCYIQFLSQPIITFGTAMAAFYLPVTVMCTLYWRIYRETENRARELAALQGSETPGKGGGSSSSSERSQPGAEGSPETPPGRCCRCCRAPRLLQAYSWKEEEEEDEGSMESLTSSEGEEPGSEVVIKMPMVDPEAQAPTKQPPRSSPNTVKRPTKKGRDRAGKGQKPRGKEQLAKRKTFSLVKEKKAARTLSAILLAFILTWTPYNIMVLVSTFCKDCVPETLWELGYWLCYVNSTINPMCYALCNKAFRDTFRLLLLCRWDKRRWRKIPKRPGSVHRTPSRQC
In short: (§1)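 Intracellular calcium was tracked by fluorescence (488/540 nm) over 60 sec after compound addition to dye-loaded CHO cells expressing the receptor. Inhibitory activity used a 15 min pre-incubation before carbachol at the subtype EC80.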

M4 muscarinic receptor = target: T2, M4 muscarinic receptor (Homo sapiens, UniProt P08173); assay: Functional mobilization of intracellular calcium (FLIPR, Fluo-3), M4-CHO cells; assay type: cell-based; conditions: for Emax: 100% efficacy is the maximum response obtained with the Carbachol control, read-out: M4 Efficacy
T2 construct: expressed in transfected cells; host or cells: CHO cells (M4-CHO, under puromycin, zeocin and blasticidin selection)
T2 sequence (P08173 1-479): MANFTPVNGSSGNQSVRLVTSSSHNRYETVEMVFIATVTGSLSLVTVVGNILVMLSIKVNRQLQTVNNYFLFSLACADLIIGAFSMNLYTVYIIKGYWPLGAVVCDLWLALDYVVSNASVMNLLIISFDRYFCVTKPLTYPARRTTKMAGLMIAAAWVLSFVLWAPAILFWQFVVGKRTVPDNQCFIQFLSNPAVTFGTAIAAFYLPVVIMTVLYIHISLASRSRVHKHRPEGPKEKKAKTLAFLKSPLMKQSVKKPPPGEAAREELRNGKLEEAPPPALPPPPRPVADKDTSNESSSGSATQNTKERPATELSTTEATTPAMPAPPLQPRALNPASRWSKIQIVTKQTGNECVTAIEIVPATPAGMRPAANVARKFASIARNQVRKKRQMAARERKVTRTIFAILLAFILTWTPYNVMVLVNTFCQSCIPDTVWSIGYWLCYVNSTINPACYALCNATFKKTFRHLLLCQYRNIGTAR
In short: as §1

[1] = compound nos. 1-454, M1-CHO cells, calcium mobilization
[2] = compound nos. 1-454, M4-CHO cells, calcium mobilization

Row | Compound | M1 Activity (M1 muscarinic receptor; compound nos. 1-454) | Emax (M1 muscarinic receptor; compound nos. 1-454) [%] | M4 Activity (M4 muscarinic receptor; compound nos. 1-454) | Emax (M4 muscarinic receptor; compound nos. 1-454) [%] | M1 Activity (M1 muscarinic receptor; [1]) | M4 Activity (M4 muscarinic receptor; [2]) | Emax (M1 muscarinic receptor; compound nos. 455-509) [%] | M1 Activity (M1 muscarinic receptor; compounds 455-509) | Emax (M4 muscarinic receptor; compound nos. 455-509) [%] | M4 Activity (M4 muscarinic receptor; compounds 455-509)
1 | c1ccc2c(c1)NCC21CCN(C2CC3CCC(C3)C2)CC1 (stereo not drawn) [compound 420] | ++ (activity was measured to be between 0.7 μM and 3.0 μM) | < 65 | + (activity was measured to be greater than or equal to 4.0 μM) | < 55 |  |  |  |  |  | 
2 | CC=CCOC(=O)N1C2CCC1CC(N1CCC3(CC1)CN(C(=O)N(C)C)c1ccc(F)cc13)C2 (stereo not drawn) [compound 200] |  | 65 to 85 |  | < 55 | ++ (activity was measured to be between 0.7 μM and 3.0 μM) | + (activity was measured to be greater than or equal to 4.0 μM) |  |  |  | 
3 | c1ccc2c(c1)NCC21CCN(CC2CCCCC2)CC1 [compound 342] |  | 65 to 85 |  | 55 to 70 | +++ (activity was measured to be less than or equal to 0.7 μM) | ++ (activity was measured to be between 0.1 μM and 4.0 μM) |  |  |  | 
4 | CC(C)OC(=O)N1C2CCC1CC(N1CCC3(CC1)CN(C(=O)OC1CCC1)c1ccc(F)cc13)C2 (stereo not drawn) [compound 166] |  | > 85 |  | > 70 | +++ (activity was measured to be less than or equal to 0.7 μM) | + (activity was measured to be greater than or equal to 4.0 μM) |  |  |  | 
5 | CC(=O)N[C@H]1CC2(CCN(CC3CCCCC3)CC2)c2ccccc21 [compound 184] |  | > 85 |  | 55 to 70 | ++ (activity was measured to be between 0.7 μM and 3.0 μM) | + (activity was measured to be greater than or equal to 4.0 μM) |  |  |  | 
6 | CCOC(=O)N1C2CCC1CC(N1CCC3(CC1)CN(C(=O)c1snnc1C)c1ccc(F)cc13)C2 (stereo not drawn) [compound 59] |  | < 65 |  | 55 to 70 | +++ (activity was measured to be less than or equal to 0.7 μM) | ++ (activity was measured to be between 0.1 μM and 4.0 μM) |  |  |  | 
7 | CCOC(=O)N1CCC(N2CCC3(CC2)CN(C(=O)c2ccccn2)c2ccc(F)cc23)CC1 [compound 331] |  | < 65 |  | < 55 | ++ (activity was measured to be between 0.7 μM and 3.0 μM) | + (activity was measured to be greater than or equal to 4.0 μM) |  |  |  | 
8 | CCOC(=O)N1CCC(N2CCC3(CC2)CN(C(=O)C2CCC2)c2ccc(F)cc23)CC1 [compound 254] |  | 65 to 85 |  | 55 to 70 | + (activity was measured to be greater than or equal to 3.0 μM) | + (activity was measured to be greater than or equal to 4.0 μM) |  |  |  | 
9 | CC(=O)N1CC2(CCN(C3CCN(c4cncc(C5CC5)n4)CC3)CC2)c2ccccc21 [compound 503] |  |  |  |  |  |  | < 25 | +++ (activity was measured to be less than or equal to 2.0 μM) | < 25 | ++ (activity was measured to be between 2.0 μM and 5.0 μM)
10 | CCOC(=O)N1C2CCC1CC(N1CCC3(CC1)CN(C(=O)C(C)C)c1ccc(F)cc13)C2 (stereo not drawn) [compound 390] | +++ (activity was measured to be less than or equal to 0.7 μM) | 65 to 85 | + (activity was measured to be greater than or equal to 4.0 μM) | < 55 |  |  |  |  |  | 
11 | C=Cc1ccc2c(c1)C1(CCN(C3CCN(C(=O)OCC)CC3)CC1)CN2C(C)=O [compound 11] |  | < 65 |  | < 55 | + (activity was measured to be greater than or equal to 3.0 μM) | + (activity was measured to be greater than or equal to 4.0 μM) |  |  |  | 
12 | O=C(C1CCC1)N1CC2(CCN(C3CC4CCC(C3)N4C(=O)O[C@@H]3CCOC3)CC2)c2cc(F)ccc21 (stereo partly drawn) [compound 69] |  | < 65 |  | < 55 | ++ (activity was measured to be between 0.7 μM and 3.0 μM) | ++ (activity was measured to be between 0.1 μM and 4.0 μM) |  |  |  | 
13 | CCCC1CCC(N2CCC3(CC2)CNc2ccccc23)CC1 (stereo not drawn) [compound 334] |  | < 65 |  | < 55 | + (activity was measured to be greater than or equal to 3.0 μM) | + (activity was measured to be greater than or equal to 4.0 μM) |  |  |  | 
14 | CC(=O)N1CC2(CCN(C3CCN(C(=O)O[C@H]4CCOC4)CC3)CC2)c2cc(C)ccc21 [compound 398] | ++ (activity was measured to be between 0.7 μM and 3.0 μM) | < 65 | + (activity was measured to be greater than or equal to 4.0 μM) | < 55 |  |  |  |  |  | 
15 | CCCOC(=O)N1C2CCC1CC(N1CCC3(CC1)CN(S(C)(=O)=O)c1ccc(F)cc13)C2 (stereo not drawn) [compound 294] |  | > 85 |  | 55 to 70 | ++ (activity was measured to be between 0.7 μM and 3.0 μM) | ++ (activity was measured to be between 0.1 μM and 4.0 μM) |  |  |  | 
16 | CC(=O)N1CC2(CCN(CC3CCCCC3)CC2)c2cc(F)ccc21 [compound 393] | +++ (activity was measured to be less than or equal to 0.7 μM) | 65 to 85 | + (activity was measured to be greater than or equal to 4.0 μM) | < 55 |  |  |  |  |  | 
17 | CCc1nsc(N2C3CCC2CC(N2CCC4(CCN(C(=O)N(C)C)c5ccccc54)CC2)C3)n1 (stereo not drawn) [compound 473] |  |  |  |  |  |  | > 100 | +++ (activity was measured to be less than or equal to 2.0 μM) | 25 to 100 | ++ (activity was measured to be between 2.0 μM and 5.0 μM)
18 | CCOC(=O)N1CCC(N2CCC3(CC2)CN(C(=O)N(C)c2ccccc2)c2ccc(F)cc23)CC1 [compound 169] |  | 65 to 85 |  | > 70 | +++ (activity was measured to be less than or equal to 0.7 μM) | + (activity was measured to be greater than or equal to 4.0 μM) |  |  |  | 
19 | COCCOC(=O)N1C2CCC1CC(N1CCC3(CC1)COc1ccc(F)cc13)C2 (stereo not drawn) [compound 378] | ++ (activity was measured to be between 0.7 μM and 3.0 μM) | 65 to 85 | + (activity was measured to be greater than or equal to 4.0 μM) | 55 to 70 |  |  |  |  |  | 
20 | O=C1CC2(CCN(C3CCCCCC3)CC2)c2ccccc2N1 [compound 242] |  | 65 to 85 |  | > 70 | +++ (activity was measured to be less than or equal to 0.7 μM) | ++ (activity was measured to be between 0.1 μM and 4.0 μM) |  |  |  | 
21 | CCOC(=O)N1CCC(N2CCC3(CC2)CNc2ccccc23)CC1 [compound 352] |  | > 85 |  | > 70 | +++ (activity was measured to be less than or equal to 0.7 μM) | + (activity was measured to be greater than or equal to 4.0 μM) |  |  |  | 
22 | CN(C)C(=O)N1CC2(CCN(C3CCN(c4cnccn4)CC3)CC2)c2ccccc21 [compound 464] |  |  |  |  |  |  | > 100 | +++ (activity was measured to be less than or equal to 2.0 μM) | > 100 | ++ (activity was measured to be between 2.0 μM and 5.0 μM)
23 | O=C(OC1CCC1)N1C2CCC1CC(N1CCC3(CCc4ccccc43)CC1)C2 (stereo not drawn) [compound 68] |  | < 65 |  | < 55 | ++ (activity was measured to be between 0.7 μM and 3.0 μM) | + (activity was measured to be greater than or equal to 4.0 μM) |  |  |  | 
24 | CC(=O)N[C@H]1CC2(CCN(C3CCCCCC3)CC2)c2ccccc21 [compound 143] |  | 65 to 85 |  | > 70 | +++ (activity was measured to be less than or equal to 0.7 μM) | +++ (activity was measured to be less than or equal to 0.1 μM) |  |  |  | 
